Assay results: ChEMBL document CHEMBL1201862, “PubChem BioAssay data set” (2004)
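Interpolation was linear, between the two tested concentrations surrounding the appropriate level; five concentrations were tested over 48 hours in 96-well plates. GI50 is the concentration that inhibits growth by half.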 Calls of active or inactive are those of the source. Cut-off read from the data, not from the text of the source: active = GI50 up to about 1.1 µM and inactive = higher.

How the values were obtained:
Test in all cases: NCI-60 cell line screen, 48 h
HT-29 = test system: HT-29
COLO 205 = test system: COLO 205
BT-549 = test system: BT-549
T47D = test system: T47D
MDA-N = test system: MDA-N
SK-MEL-5 = test system: SK-MEL-5
Hs-578T = test system: Hs-578T
A498 = test system: A498
M14 = test system: M14
NCI/ADR-RES = test system: NCI/ADR-RES
SF-268 = test system: SF-268
SNB-75 = test system: SNB-75
K562 = test system: K562
UACC-257 = test system: UACC-257
DU-145 = test system: DU-145
OVCAR-5 = test system: OVCAR-5
SF-539 = test system: SF-539
NCI-H460 = test system: NCI-H460
RPMI-8226 = test system: RPMI-8226

Measured: GI50

CC1(C)SC2C(NC(=O)Cc3ccccc3)C(=O)N2C1C(=O)O (stereo unspecified)
inactive: HT-29 > 100 µM | COLO 205 65.6 µM | BT-549 > 100 µM | T47D > 100 µM | MDA-N > 100 µM | SK-MEL-5 > 100 µM | Hs-578T > 100 µM | A498 > 100 µM | M14 > 100 µM | NCI/ADR-RES > 100 µM | SF-268 > 100 µM | SNB-75 > 100 µM | K562 > 100 µM | UACC-257 > 100 µM | DU-145 > 100 µM | OVCAR-5 > 100 µM | SF-539 > 100 µM | NCI-H460 > 100 µM

Cc1ccccc1/N=C/N(C)C
inactive: HT-29 34.3 µM | COLO 205 39.6 µM | BT-549 85.7 µM | T47D 34 µM | MDA-N 37.5 µM | SK-MEL-5 17.2 µM | Hs-578T 44.7 µM | A498 91.6 µM | M14 99.3 µM | NCI/ADR-RES > 100 µM | SF-268 57.4 µM | SNB-75 44.9 µM | RPMI-8226 13.3 µM | K562 14.1 µM | UACC-257 22 µM | DU-145 44.2 µM | OVCAR-5 72.8 µM | SF-539 61.8 µM

Cc1cc2nn(C3CCCCO3)nc2cc1C (stereo unspecified)
inactive: HT-29 > 100 µM | COLO 205 > 100 µM | BT-549 > 100 µM | T47D > 100 µM | MDA-N > 100 µM | SK-MEL-5 > 100 µM | Hs-578T > 100 µM | A498 60.4 µM | M14 > 100 µM | NCI/ADR-RES > 100 µM | SF-268 > 100 µM | SNB-75 > 100 µM | K562 > 100 µM | UACC-257 > 100 µM | DU-145 > 100 µM | OVCAR-5 > 100 µM | SF-539 > 100 µM | NCI-H460 > 100 µM

SC1=NNC2(C(Cl)=N1)c1ccccc1-c1ccccc12
inactive: COLO 205 > 10 µM | BT-549 > 10 µM | T47D > 10 µM | MDA-N > 10 µM | SK-MEL-5 > 10 µM | Hs-578T > 10 µM | A498 > 10 µM | M14 > 10 µM | NCI/ADR-RES > 10 µM | SF-268 > 10 µM | SNB-75 > 10 µM | RPMI-8226 > 10 µM | K562 > 10 µM | UACC-257 > 10 µM | DU-145 > 10 µM | SF-539 > 10 µM | NCI-H460 > 10 µM
